Results taken from patent US9776997B2, “3-aryl-substituted imidazo[1,2-A]pyridines and their use” (Bayer Pharma Aktiengesellschaft, priority 2013, dated 2017).
Structures can show the parent of a compound that is named as a salt.

Molecular target: T1, recombinant guanylate cyclase reporter cell line (Rattus norvegicus, UniProt P19686+P20595)
T1 construct: expressed in transfected cells; host or cells: recombinant reporter cell line
T1 sequence (P19686 1-690): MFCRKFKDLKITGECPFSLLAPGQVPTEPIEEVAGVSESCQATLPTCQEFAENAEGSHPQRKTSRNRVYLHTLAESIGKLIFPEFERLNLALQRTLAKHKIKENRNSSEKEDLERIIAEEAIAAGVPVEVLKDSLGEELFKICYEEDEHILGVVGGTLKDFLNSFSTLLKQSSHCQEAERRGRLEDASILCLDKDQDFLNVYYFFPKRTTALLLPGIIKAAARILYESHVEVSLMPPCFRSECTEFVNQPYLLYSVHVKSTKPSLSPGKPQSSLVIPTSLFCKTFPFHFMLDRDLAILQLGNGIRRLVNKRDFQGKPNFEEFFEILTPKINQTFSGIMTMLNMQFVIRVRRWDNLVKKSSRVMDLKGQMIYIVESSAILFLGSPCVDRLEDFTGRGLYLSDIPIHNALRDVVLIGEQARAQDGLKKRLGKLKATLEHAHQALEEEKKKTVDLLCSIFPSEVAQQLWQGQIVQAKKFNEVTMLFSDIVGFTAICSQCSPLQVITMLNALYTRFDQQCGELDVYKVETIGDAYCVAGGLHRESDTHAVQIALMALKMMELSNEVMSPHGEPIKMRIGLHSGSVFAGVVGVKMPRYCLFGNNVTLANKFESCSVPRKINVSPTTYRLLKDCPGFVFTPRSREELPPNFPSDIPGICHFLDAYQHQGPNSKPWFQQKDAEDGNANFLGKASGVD
T1 sequence (P20595 1-619): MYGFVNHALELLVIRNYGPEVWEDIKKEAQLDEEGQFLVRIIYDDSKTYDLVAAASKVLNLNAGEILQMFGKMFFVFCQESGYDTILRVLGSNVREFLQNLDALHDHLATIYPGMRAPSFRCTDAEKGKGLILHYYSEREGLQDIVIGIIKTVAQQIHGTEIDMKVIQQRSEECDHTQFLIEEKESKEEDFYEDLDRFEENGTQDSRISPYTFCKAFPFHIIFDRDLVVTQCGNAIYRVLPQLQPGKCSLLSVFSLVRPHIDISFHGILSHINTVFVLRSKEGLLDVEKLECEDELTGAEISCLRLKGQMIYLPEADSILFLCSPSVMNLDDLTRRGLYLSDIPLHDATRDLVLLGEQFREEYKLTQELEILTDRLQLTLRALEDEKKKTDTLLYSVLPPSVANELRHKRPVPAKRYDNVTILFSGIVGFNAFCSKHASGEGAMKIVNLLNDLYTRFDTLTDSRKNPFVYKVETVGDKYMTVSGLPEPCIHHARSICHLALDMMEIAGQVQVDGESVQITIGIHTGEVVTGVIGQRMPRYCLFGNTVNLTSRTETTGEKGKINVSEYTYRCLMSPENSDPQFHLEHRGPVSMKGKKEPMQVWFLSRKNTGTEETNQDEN
Experiment: Effect on a recombinant guanylate cyclase reporter cell line
Type: cell-based
Settings: MEC = minimum effective concentration; in some cases mean values for individual determinations
Description: B-2. Effect on a Recombinant Guanylate Cyclase Reporter Cell Line
The cellular effect of the inventive compounds is determined using a recombinant guanylate cyclase reporter cell line, as described in F. Wunder et al., Anal. Biochem. 339, 104-112 (2005).
Representative MEC values (MEC=minimum effective concentration) for the inventive compounds are shown in the table below (in some cases as mean values for individual determinations): […]

Structure (SMILES)	MEC [µM]
Cc1nc2c(OCc3c(F)cccc3F)cccn2c1-c1ccc2c(ccn2C)c1 [Example 36, 8-[(2,6-difluorobenzyl)oxy]-2-methyl-3-(1-methyl-1H-indol-5-yl)imidazo[1,2-a]pyridine]	3.0
Cc1nc2c(OCc3c(F)cccc3F)cccn2c1-c1ccc(CN2CCOCC2)c(F)c1 [Example 39, 8-[(2,6-difluorobenzyl)oxy]-3-[3-fluoro-4-(morpholin-4-ylmethyl)phenyl]-2-methylimidazo[1,2-a]pyridine]	3.0
Cc1nc2c(OCc3c(F)cccc3F)cccn2c1-c1cnc2ccccc2c1 [Example 19, 3-{8-[(2,6-difluorobenzyl)oxy]-2-methylimidazo[1,2-a]pyridin-3-yl}quinoline]	1.0
COc1ccc(-c2c(C)nc3c(OCc4c(F)cccc4F)cccn23)cc1 [Example 25, 8-[(2,6-difluorobenzyl)oxy]-3-(4-methoxyphenyl)-2-methylimidazo[1,2-a]pyridine]	1.0
Cc1nc2c(OCc3c(F)cccc3F)cccn2c1-c1nc(N)n(CC(F)(F)F)n1 [Example 125, 3-{8-[(2,6-Difluorobenzyl)oxy]-2-methylimidazo[1,2-a]pyridin-3-yl}-1-(2,2,2-trifluoroethyl)-1H-1,2,4-triazol-5-amine]	3.0
Cc1nc2c(OCC3CCCCC3)cccn2c1-c1nnc(CN2CCCC2=O)o1 [Example 71]	3.0
Cc1nc2c(OCC3CCCCC3)cccn2c1-c1nnc(-c2cccnc2)o1 [Example 64]	3.0
COc1ccc(-c2c(C)nc3c(OCc4c(F)cccc4F)cccn23)cc1CN1CCOCC1 [Example 41, 8-[(2,6-difluorobenzyl)oxy]-3-[4-methoxy-3-(morpholin-4-ylmethyl)phenyl]-2-methylimidazo[1,2-a]pyridine]	3.0
CCN(C)Cc1ccc(OC)c(-c2c(C)nc3c(OCc4c(F)cccc4F)cccn23)c1 [Example 28, N-(3-{8-[(2,6-difluorobenzyl)oxy]-2-methylimidazo[1,2-a]pyridin-3-yl}-4-methoxybenzyl)-N-methylethanamine]	1.0
Cc1nc2c(OCc3c(F)cccc3F)cccn2c1-c1ccc(C(N)=O)cc1 [Example 40, 4-{8-[(2,6-difluorobenzyl)oxy]-2-methylimidazo[1,2-a]pyridin-3-yl}benzamide]	3.0
Cc1nc2c(OCc3c(F)cccc3F)cccn2c1-c1ccc2c(c1)OCCO2 [Example 37, 8-[(2,6-difluorobenzyl)oxy]-3-(2,3-dihydro-1,4-benzodioxin-6-yl)-2-methylimidazo[1,2-a]pyridine]	3.0
CCOc1ccc(-c2c(C)nc3c(OCc4c(F)cccc4F)cccn23)cc1 [Example 10, 8-[(2,6-difluorobenzyl)oxy]-3-(4-ethoxyphenyl)-2-methylimidazo[1,2-a]pyridine]	1.0
Cc1nc2c(OCc3c(F)cccc3F)cccn2c1-c1cnn(-c2ccc(F)cc2)c1 [Example 123, 8-[(2,6-Difluorobenzyl)oxy]-3-[1-(4-fluorophenyl)-1H-pyrazol-4-yl]-2-methylimidazo[1,2-a]pyridine]	0.3
COCc1nnc(-c2c(C)nc3c(OCC4CCCCC4)cccn23)o1 [Example 67]	3.0
Cc1nc2c(OCc3c(F)cccc3F)cccn2c1-c1ccc(Oc2ccccc2)cc1 [Example 31, 8-[(2,6-difluorobenzyl)oxy]-2-methyl-3-(4-phenoxyphenyl)imidazo[1,2-a]pyridine]	3.0
Cc1nc2c(OCc3c(F)cccc3F)cccn2c1-c1ccnc(-c2ccc(F)cc2)c1 [Example 59, 8-[(2,6-Difluorobenzyl)oxy]-3-[2-(4-fluorophenyl)pyridin-4-yl]-2-methylimidazo[1,2-a]pyridine]	1.0

Now from value to compound:

MEC [µM]	Structure (SMILES)
1.0	Cc1cc(OCc2c(F)cccc2F)c2nc(C)c(-c3cnn(C(C)CC(=O)O)c3)n2c1 (racemic) [Example 110, rac-3-(4-{8-[(2,6-difluorobenzyl)oxy]-2,6-dimethylimidazo[1,2-a]pyridin-3-yl}-1H-pyrazol-1-yl)butanoic acid]
0.3	Cc1cc(OCc2c(F)cccc2F)c2nc(C)c(-c3nccc(C(N)=O)n3)n2c1 [Example 80, 2-{8-[(2,6-Difluorobenzyl)oxy]-2,6-dimethylimidazo[1,2-a]pyridin-3-yl}pyrimidine-4-carboxamide trifluoroacetate]
0.1	Cc1cc(OCc2c(F)ccc(F)c2F)c2nc(C)c(-c3cnn(CC(C)(C)N)c3)n2c1 [Example 87, 1-(4-{2,6-Dimethyl-8-[(2,3,6-trifluorobenzyl)oxy]imidazopyridin-3-yl}-1H-pyrazol-1-yl)-2-methylpropan-2-amine]
1.0	CCOC(=O)c1cc(-c2c(C)nc3c(OCc4c(F)cccc4F)cc(C)cn23)on1 [Example 141, Ethyl 5-{8-[(2,6-difluorobenzyl)oxy]-2,6-dimethylimidazo[1,2-a]pyridin-3-yl}-1,2-oxazole-3-carboxylate]
0.01	Cc1cc(OCc2c(F)cccc2F)c2nc(C)c(-c3cnn(CC(C)(C)O)c3)n2c1 [Example 116, 1-(4-{8-[(2,6-Difluorobenzyl)oxy]-2,6-dimethylimidazo[1,2-a]pyridin-3-yl}-1H-pyrazol-1-yl)-2-methylpropan-2-ol]
0.1	COC(=O)CCn1cc(-c2c(C)nc3c(OCc4c(F)cccc4F)cc(C)cn23)cn1 [Example 102, Methyl 3-(4-{8-[(2,6-difluorobenzyl)oxy]-2,6-dimethylimidazo[1,2-a]pyridin-3-yl}-1H-pyrazol-1-yl)propanoate]
1.0	Cc1nc2c(OCc3c(F)cccc3F)cccn2c1-c1cnn(-c2cccnc2)c1 [Example 121]
0.065	Cc1cc(OCc2c(F)cccc2F)c2nc(C)c(-c3cnn(CCC(=O)O)c3)n2c1 [Example 107, 3-(4-{8-[(2,6-Difluorobenzyl)oxy]-2,6-dimethylimidazo[1,2-a]pyridin-3-yl}-1H-pyrazol-1-yl)propanoic acid]
3.0	Cc1nc2c(OCc3c(F)cccc3F)cccn2c1-c1cnn(-c2cncc(F)c2)c1 [Example 122]
0.03	Cc1cc(OCc2c(F)cccc2F)c2nc(C)c(-c3cnn(CCCC#N)c3)n2c1 [Example 100, 4-(4-{8-[(2,6-Difluorobenzyl)oxy]-2,6-dimethylimidazo[1,2-a]pyridin-3-yl}-1H-pyrazol-1-yl)butanonitrile]
0.1	CC(=O)c1cccc(-c2c(C)nc3c(OCc4c(F)cccc4F)cccn23)c1 [Example 2, 1-(3-{8-[(2,6-difluorobenzyl)oxy]-2-methylimidazo[1,2-a]pyridin-3-yl}phenyl)ethanone]
1.0	CCCOc1ccc(-c2c(C)nc3c(OCc4c(F)cccc4F)cccn23)cn1 [Example 22, 8-[(2,6-difluorobenzyl)oxy]-2-methyl-3-(6-propoxypyridin-3-yl)imidazo[1,2-a]pyridine]
0.01	Cc1cc(OCc2c(F)cccc2F)c2nc(C)c(-c3cn[nH]c3)n2c1 [Example 88, 8-[(2,6-difluorobenzyl)oxy]-2,6-dimethyl-3-(1H-pyrazol-4-yl)imidazo[1,2-a]pyridine]
0.2	CC(=O)Nc1cccc(-c2c(C)nc3c(OCc4c(F)cccc4F)cccn23)c1 [Example 4, N-(3-{8-[(2,6-difluorobenzyl)oxy]-2-methylimidazo[1,2-a]pyridin-3-yl}phenyl)acetamide]
0.3	Cc1cc(OCc2c(F)cccc2F)c2nc(C)c(-c3cc(CC(C)(C)N)no3)n2c1 [Example 144, 1-(5-{8-[(2,6-Difluorobenzyl)oxy]-2,6-dimethylimidazo[1,2-a]pyridin-3-yl}-1,2-oxazol-3-yl)-2-methylpropan-2-amine]
1.0	Cc1cc(OCc2ncccc2F)c2nc(C)c(-c3cn[nH]c3)n2c1 [Example 84, 8-[(3-fluoropyridin-2-yl)methoxy]-2,6-dimethyl-3-(1H-pyrazol-4-yl)imidazo[1,2-a]pyridine]
